The text below walks through data of US5679677A, “Heterocyclic carbamates, process for their preparation and medicaments” (Luitpold Pharma GmbH, priority 1993, dated 1997).

Entries after “also recorded” stand apart in the source; their conditions may differ. Structures can show the parent of a compound that is named as a salt.

One data set addresses T1, elastase from human granulocytes (Homo sapiens, UniProt P08246).
T1 construct: from tissue; host or cells: human granulocytes
T1 sequence (P08246 30-247 limits assumed): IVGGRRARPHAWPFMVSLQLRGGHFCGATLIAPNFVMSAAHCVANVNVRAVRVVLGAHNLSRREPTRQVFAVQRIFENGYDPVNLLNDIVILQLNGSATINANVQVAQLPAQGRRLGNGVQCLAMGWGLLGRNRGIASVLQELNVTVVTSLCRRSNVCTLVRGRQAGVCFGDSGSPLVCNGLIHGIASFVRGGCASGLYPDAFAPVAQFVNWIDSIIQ
The experiment in a line: Inhibition of granulocyte elastase (enzyme inhibition test, substrate L-pyroglutaminyl-L-prolyl-L-valine-p-nitroanilide). It counts as biochemical. The note with it: substrate L-pyroglutaminyl-L-prolyl-L-valine-p-nitro-anilide, read-out: IC50 (concentration for 50% inhibition) of granulocytic elastase. The procedure: The inhibition of granulocyte elastase was determined in an enzyme inhibition test using elastase from human granulocytes. In this test the specific substrate L-pyroglutaminyl-[…]-nitro-anilide was used ([…] et al., Scand. J. Lab. Invest. 43 (1983) 427-432). The IC50 values (concentrations for 50% inhibition) are shown in Table 1 for exemplary compounds according to the invention.
On to `O=C(Oc1ccccc1)n1ncc2ccccc2c1=O` [Example 1, Phenyl 1(2 H)-phthalazinone-N-carboxylate], for which the IC50 stood at 0.2 µM.
Same read-out and setting: as for `CCOC(=O)n1ccc2ccccc2c1=O` [Example 2], the figure is 0.3 µM.
Still for that read-out and setting: under `COC(=O)c1ccc(OC(=O)n2nnc3ccccc3c2=O)cc1` [Example 4] stands 8.3 µM; under `Cc1nn(C(=O)Oc2ccccc2)c(=O)c2ccccc12` [Example 6], 0.75 µM.
Still for that read-out and setting: under `O=C(Oc1ccccc1)n1c(SCc2ccccc2)nc2ccccc2c1=O` [Example 13] stands 4 µM; under `CCOC(=O)n1c(SCc2ccccc2)nc2ccccc2c1=O` [Example 14], 6 µM.
As for `CCOC(=O)Oc1cccc2c(=O)n(C(=O)OCC)ccc12` [Example 15, Ethyl 5-ethoxycarbonyloxyisoquinolin-1(2 H)-one-N-carboxylate], the IC50 came to 5.4 µM.

Test system in the next data set: not listed separately
As to the kind of experiment: Antithrombotic action in the tail-bleeding time model on the rat (modified test according to Diness). It counts as in vivo. The note with it: groups of 10, oral administration, 200 mg/kg. The procedure:
The compound from Example 14 at a dose of 200 mg/kg thus prolonged the bleeding time by 103%.
Take `CCOC(=O)n1c(SCc2ccccc2)nc2ccccc2c1=O` [Example 14]: the “prolongation of the bleeding time” value amounted to 103%.

Test system in the next data set: not listed separately
As to the kind of experiment: Hygroscopicity of isolated solid. It counts as physicochemical. The settings on record: hydrochloride.
Consider `CN1CCCC(OC(=O)n2ccc3ccccc3c2=O)C1` (stereo not drawn) [Example 19, N'-Methylpiperidin-3-yl isoquinolin-1(2 H)-one-N-carboxylate hydrochloride], for which the “hygroscopicity / behaviour in air (in words)” value is “very hygroscopic; also recorded: deliquesces in air”.
